In ChEMBL document CHEMBL5604061, “ASAP - WNV NS2B-NS3 protease fluorescence dose response” (2024) one finds IC50 data, which are given here for 33 compounds.

The target of the test is T1, NS3 (West Nile virus, UniProt K4FQI5).
T1 sequence (K4FQI5 whole entry): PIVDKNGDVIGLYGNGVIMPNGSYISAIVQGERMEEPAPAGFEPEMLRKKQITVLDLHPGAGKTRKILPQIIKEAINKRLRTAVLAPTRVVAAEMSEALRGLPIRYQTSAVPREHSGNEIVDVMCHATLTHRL
The test can be described thus: Functional biochemical assay to identify treatments for viral infectious disease that targets West Nile NS2B-NS3 protease. Utilizing a direct enzyme activity measurement method, reading the fluorescence intensity is used to characterize the relative potency of inhibitors as IC50. The arrangement: species or system NY-99.
By IC50 is commonly meant the concentration that gives 50% inhibition. For `CN(c1ccc2c(c1)CNC2)[C@H](C(=O)NCC(F)F)c1cc(Cl)cc(C2CC2)c1`, the IC50 was 0.131 µM. `CCOC(=O)[C@H](Nc1ccc2c(c1)CNC2)c1cc(Cl)cc(C2CC2)c1` registered a concentration for half-maximal inhibition (IC50) of 0.845 µM. For `O=C(NCC(F)F)[C@H](Nc1ccc2c(c1)CNC2)c1cc(Cl)ccc1Sc1ccccc1` the value was 9.51 µM. For `Cc1cc(C(=O)Nc2ccc3c(c2)CNC3)cc2nc[nH]c12`, 12.5 µM corresponded to half-maximal inhibition (IC50).

Turning to `O=C(Nc1ccc2c(c1)CNC2)c1ccc2[nH]cc(C3CCNCC3)c2c1`, the half-inhibitory concentration (IC50) is 11.5 µM.

Compound `COCc1cc(Cl)cc([C@H](Nc2ccc3c(c2)CNC3)C(=O)NCC(F)F)c1` registered a concentration for half-maximal inhibition (IC50) of 0.154 µM. As to `O=C(NCC(F)F)[C@H](Nc1ccc2c(c1)CNC2)c1cc(Cl)ccc1Cl`, the IC50 was 3.01 µM. In the case of `N#Cc1ccc(-c2nc3c(C(=O)Nc4ccc5c(c4)CNC5)cc(F)cc3[nH]2)cc1`, the IC50 turned out to be 2.91 µM. Compound `O=C(Nc1ccc2c(c1)CNC2)c1cc(F)cc2[nH]c(CC[C@H]3CCCOC3)nc12` yielded a half-maximal inhibitory concentration (IC50) of 3.78 µM. `O=C(NCC(F)F)[C@H](Nc1ccc2c(c1)CNC2)c1cccc(Cl)c1` gave a concentration for half-maximal inhibition (IC50) of 0.477 µM. For `CC(C)c1nnc(-c2nc3c(C(=O)Nc4ccc5c(c4)CNC5)cc(F)cc3[nH]2)s1` the value was 11.8 µM. In turn, `CN1C(=O)CC[C@H]1c1nc2c(C(=O)Nc3ccc4c(c3)CNC4)cc(F)cc2[nH]1` registered an IC50 of 14.1 µM.

`COc1ccc(-c2nc3c(C(=O)Nc4ccc5c(c4)CNC5)cc(F)cc3[nH]2)nn1` gave a half-inhibitory concentration (IC50) of 3.68 µM.

`CCOCC1(c2nc3c(C(=O)Nc4ccc5c(c4)CNC5)cc(F)cc3[nH]2)CC1` had an IC50 of 9.95 µM.

For the compound `O=C(Nc1ccc2c(c1)CNC2)c1cc(F)cc2[nH]c(-c3cccc(F)c3)nc12`, the IC50 was found to be 7.29 µM.

Take `Cc1ccccc1-c1nc2c(C(=O)Nc3ccc4c(c3)CNC4)cc(F)cc2[nH]1`: the IC50 worked out at 8.51 µM.

With `O=C(NCC(F)F)[C@H](Nc1ccc2c(c1)CNC2)c1cc(Cl)cc(Cl)c1Cl`, the IC50 was 0.936 µM. For `CCc1cc2c(cc1NC(=O)c1cc(F)cc3[nH]ncc13)CNC2` the value was 1.59 µM; for `O=C(Nc1ccc2c(c1)CNC2)c1ccc2c(C3=CCNCC3)csc2c1`, 7.5 µM. In turn, `COc1ccc(Cl)cc1[C@H](Nc1ccc2c(c1)CNC2)C(=O)NCC(F)F` yielded an IC50 of 0.531 µM. As to `CS(=O)(=O)c1cc2c(cc1NC(=O)c1cc(F)cc3[nH]ncc13)CNC2`, half-maximal inhibition (IC50) required 2.51 µM. In the case of `O=C(Nc1ccc2c(c1)CNC2)c1cc(F)cc2[nH]c(-c3cnccc3O)nc12`, half-maximal inhibition (IC50) required 9.93 µM. `O=C(NCC(F)F)[C@H](Nc1ccc2c(c1)CNC2)c1cc(Cl)cc2c1CCC2` registered an IC50 of 0.42 µM. Turning to `O=C(NCC(F)F)[C@H](Nc1ccc2c(c1)CNC2)c1cc(Cl)cc2ccoc12`, the concentration for half-maximal inhibition (IC50) came out at 0.185 µM.

The compound `O=C(Nc1ccc2c(c1)CNC2)c1cccc2c1[C@]1(CCN(C(=O)OCc3ccccc3)C1)C(=O)N2` had a concentration for half-maximal inhibition (IC50) of 3.55 µM. Regarding `COc1cc(C#N)cc([C@H](Nc2ccc3c(c2)CNC3)C(=O)NCC(F)F)c1`, inhibition was half-maximal at 0.243 µM (IC50). On to `N#Cc1csc2cc(C(=O)Nc3ccc4c(c3)CNC4)ccc12`, for which the IC50 was 25.2 µM. In turn, `Cn1nccc1-c1cc(NC(=O)c2cc(F)cc3[nH]ncc23)cc2c1CNC2` had a concentration for half-maximal inhibition (IC50) of 1.43 µM. Then `COC(=O)c1cc2c(cc1NC(=O)c1cc(F)cc3[nH]ncc13)CNC2`, with 1 µM. In turn, `O=C(Nc1ccc2c(c1)CNC2)c1cc(F)cc2[nH]c(CCc3cccnc3)nc12` returned a 50% inhibitory concentration (IC50) of 3.31 µM. Then `O=C(Nc1ccc2c(c1)CN[C@H]2CO)c1cc(F)cc2[nH]ncc12`, with 4.53 µM.

`O=C(Nc1ccccc1)OCc1ccccc1` [BENZYL PHENYLCARBAMATE] displayed an IC50 greater than 100 µM. The compound `O=C(Nc1ccccc1)Oc1ccccc1` [PHENYL PHENYLCARBAMATE] came in with an IC50 greater than 100 µM.
